Reference: PubChem BioAssay AID330 (DTP/NCI, 2004)
Where “and” joins values, the source holds several entries; their conditions need not be identical. Equal entries are not always repeated. Toxic doses and inconclusive results are not listed.

Tested on: P388 leukemia ip, CD2F1 mice, survival T/C
Assay: NCI In Vivo Anticancer Drug Screen. Data for tumor model P388 Leukemia (intraperitoneal) in CD2F1 (CDF1) mice
Conditions: endpoint: median survival time, higher = longer survival
Outline: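 Mice carrying the transplanted tumor received test compound or vehicle. Survival was recorded in each group, and the value is the treated-group measurement divided by that of the vehicle-treated control group.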

[1] = dose: 50.0 mg/kg/injection, schedule: Q01DX005 (ip), vehicle: saline with Tween-80
[2] = dose: 100.0 mg/kg/injection, schedule: Q01DX005 (ip), vehicle: saline with Tween-80
[3] = dose: 200.0 mg/kg/injection, schedule: Q01DX005 (ip), vehicle: saline with Tween-80
[4] = dose: 50.0 mg/kg/injection, schedule: Q01DX009 (ip), vehicle: saline with Tween-80
[5] = dose: 50.0 mg/kg/injection, schedule: Q01DX009 (ip), vehicle: Klucel (hydroxypropylcellulose) (HPC)
[6] = dose: 100.0 mg/kg/injection, schedule: Q01DX009 (ip), vehicle: Klucel (hydroxypropylcellulose) (HPC)
[7] = dose: 200.0 mg/kg/injection, schedule: Q01DX009 (ip), vehicle: Klucel (hydroxypropylcellulose) (HPC)
[8] = dose: 12.5 mg/kg/injection, schedule: Q01DX005 (ip), vehicle: saline with Tween-80
[9] = dose: 25.0 mg/kg/injection, schedule: Q01DX005 (ip), vehicle: saline with Tween-80

In the case of CC1(C)CCCC(C)(C)N1CC#CCON1C(=O)c2ccccc2C1=O, the T/C (dose: 100.0 mg/kg/injection, schedule: Q04DX002 (ip), vehicle: Klucel (hydroxypropylcellulose) (HPC)) is reported as 102 % of control, the T/C (dose: 200.0 mg/kg/injection, schedule: Q04DX002 (ip), vehicle: Klucel (hydroxypropylcellulose) (HPC)) is reported as 96 % of control and the T/C (dose: 400.0 mg/kg/injection, schedule: Q04DX002 (ip), vehicle: Klucel (hydroxypropylcellulose) (HPC)) is reported as 105 % of control.
With CC(C)[C@](O)(C(=O)OCC1CC[N+]2([O-])CC[C@@H](O)C12)[C@H](C)O (stereo partly drawn) the T/C (dose: 187.5 mg/kg/injection, schedule: Q01DX009 (ip), vehicle: saline) was 94 % of control, the T/C (dose: 375.0 mg/kg/injection, schedule: Q01DX009 (ip), vehicle: saline) was 106 % of control and the T/C (dose: 750.0 mg/kg/injection, schedule: Q01DX009 (ip), vehicle: saline) was 95 % of control. The T/C (dose: 1500.0 mg/kg/injection, schedule: Q01DX009 (ip), vehicle: saline) was 106 % of control.
CN(C)c1ccc2ccc(=O)[nH]c2c1 was tested, and the T/C [1] was 95 % of control, the T/C [2] was 108 % of control and the T/C [3] was 99 % of control.
In the case of C=CCNC(=S)N=Nc1c(O)[nH]c2ccccc12, the T/C [4] is reported as 94 % of control, the T/C (dose: 100.0 mg/kg/injection, schedule: Q01DX009 (ip), vehicle: saline with Tween-80) is reported as 91 % of control and the T/C (dose: 200.0 mg/kg/injection, schedule: Q01DX009 (ip), vehicle: saline with Tween-80) is reported as 88 % of control.
In the case of CCCCNC(=O)OCCN(C)CCOC(=O)NCCCC, the T/C (dose: 60.0 mg/kg/injection, schedule: Q01DX005 (ip), vehicle: saline) is reported as 107 % of control and the T/C (dose: 120.0 mg/kg/injection, schedule: Q01DX005 (ip), vehicle: saline) is reported as 101 % of control.
With C[n+]1c(-c2cccc(OCCCCCCCCCCOc3cccc(-c4c5cc(N)ccc5c5ccc(N)cc5[n+]4C)c3)c2)c2cc(N)ccc2c2ccc(N)cc21 the T/C (dose: 0.39 mg/kg/injection, schedule: Q01DX005 (ip), vehicle: water) was 168 % of control, the T/C (dose: 0.78 mg/kg/injection, schedule: Q01DX005 (ip), vehicle: water) was 153 % of control and 168 % of control and the T/C (dose: 0.78 mg/kg/injection, schedule: Q01DX009 (ip), vehicle: water) was 153 % of control. For the same molecule, the T/C (dose: 1.56 mg/kg/injection, schedule: Q01DX005 (ip), vehicle: water) was 174 % of control, the T/C (dose: 1.56 mg/kg/injection, schedule: Q01DX009 (ip), vehicle: water) was 170 % of control and the T/C (dose: 3.0 mg/kg/injection, schedule: Q01DX009 (ip), vehicle: water) was 169 % of control. The T/C (dose: 3.12 mg/kg/injection, schedule: Q01DX009 (ip), vehicle: water) was 153 % of control and the T/C (dose: 6.25 mg/kg/injection, schedule: Q01DX009 (ip), vehicle: water) was 122 % of control.
With CCN(CC)CCCC(CO)Nc1ccnc2cc(Cl)ccc12 (stereo not drawn) the T/C [5] was 104 % of control and 100 % of control and the T/C [6] was 96 % of control and 98 % of control.
NNc1c(C(N)=O)c2c(N)ncnc2n1C1OC(CO)C(O)C1O (stereo not drawn) was tested, and the T/C (dose: 3.12 mg/kg/injection, schedule: Q01DX005 (ip), vehicle: Klucel (hydroxypropylcellulose) (HPC)) was 157 % of control, the T/C (dose: 6.25 mg/kg/injection, schedule: Q01DX005 (ip), vehicle: Klucel (hydroxypropylcellulose) (HPC)) was 166 % of control and the T/C (dose: 12.5 mg/kg/injection, schedule: Q01DX005 (ip), vehicle: Klucel (hydroxypropylcellulose) (HPC)) was 157 % of control. For the same molecule, the T/C (dose: 50.0 mg/kg/injection, schedule: Q04DX003 (ip), vehicle: Klucel (hydroxypropylcellulose) (HPC)) was 115 % of control, the T/C (dose: 100.0 mg/kg/injection, schedule: Q04DX003 (ip), vehicle: Klucel (hydroxypropylcellulose) (HPC)) was 115 % of control and the T/C (dose: 100.0 mg/kg/injection, schedule: Q04DX003 (ip), vehicle: water) was 120 % of control. The T/C (dose: 200.0 mg/kg/injection, schedule: Q04DX003 (ip), vehicle: water) was 86 % of control.
In the case of O=C1c2ccccc2C(=Cc2cccnc2)c2ccccc21, the T/C (dose: 6.25 mg/kg/injection, schedule: Q01DX009 (ip), vehicle: saline with Tween-80) is reported as 94 % of control, the T/C (dose: 12.5 mg/kg/injection, schedule: Q01DX009 (ip), vehicle: saline with Tween-80) is reported as 105 % of control and the T/C (dose: 25.0 mg/kg/injection, schedule: Q01DX009 (ip), vehicle: saline with Tween-80) is reported as 102 % of control. The T/C [4] was 91 % of control.
In the case of CC(=O)O/C1=C\CCCCCCCCCC1, the T/C [1] is reported as 95 % of control, the T/C [2] is reported as 90 % of control and the T/C [3] is reported as 110 % of control.
For CSc1ccccc1[As](c1ccccc1)c1ccccc1SC, the T/C [5] was 90 % of control, the T/C [6] was 92 % of control and the T/C [7] was 95 % of control.
O=C(/C(=N/Nc1ccccc1)C(=S)Nc1ccccc1)c1ccccc1 was tested, and the T/C (dose: 3.13 mg/kg/injection, schedule: Q01DX005 (ip), vehicle: saline with Tween-80) was 99 % of control, the T/C (dose: 6.25 mg/kg/injection, schedule: Q01DX005 (ip), vehicle: saline with Tween-80) was 95 % of control and the T/C [8] was 91 % of control and 92 % of control. For the same molecule, the T/C [9] was 90 % of control, the T/C [1] was 89 % of control and 93 % of control and the T/C [3] was 90 % of control.
COc1ccccc1C(O)(C(F)(F)F)C(F)(F)F was tested, and the T/C [5] was 101 % of control, the T/C [6] was 98 % of control and the T/C [7] was 95 % of control.
N#CN=[N+]([O-])c1ccccc1 was tested, and the T/C (dose: 6.25 mg/kg/injection, schedule: Q04DX003 (ip), vehicle: Klucel (hydroxypropylcellulose) (HPC)) was 100 % of control, the T/C (dose: 12.5 mg/kg/injection, schedule: Q04DX003 (ip), vehicle: Klucel (hydroxypropylcellulose) (HPC)) was 105 % of control and the T/C (dose: 25.0 mg/kg/injection, schedule: Q04DX003 (ip), vehicle: Klucel (hydroxypropylcellulose) (HPC)) was 106 % of control and 96 % of control.
CCCCCCCCCCC(=O)CCCCCC was tested, and the T/C (dose: 50.0 mg/kg/injection, schedule: Q01DX009 (ip), vehicle: other) was 90 % of control, the T/C (dose: 100.0 mg/kg/injection, schedule: Q01DX009 (ip), vehicle: other) was 100 % of control and the T/C (dose: 200.0 mg/kg/injection, schedule: Q01DX009 (ip), vehicle: other) was 109 % of control.
In the case of O=C(NC1CCCN1C(=O)/C=C/c1ccccc1)NC1CCCN1C(=O)/C=C/c1ccccc1 (stereo not drawn), the T/C (dose: 60.0 mg/kg/injection, schedule: Q01DX005 (ip), vehicle: saline with Tween-80) is reported as 100 % of control, the T/C (dose: 120.0 mg/kg/injection, schedule: Q01DX005 (ip), vehicle: saline with Tween-80) is reported as 88 % of control and the T/C (dose: 240.0 mg/kg/injection, schedule: Q01DX005 (ip), vehicle: saline with Tween-80) is reported as 101 % of control.
With O=C(O)C1CC(Cl)C(O)C(Cl)C1 (stereo not drawn) the T/C [1] was 100 % of control, the T/C [2] was 97 % of control and the T/C [3] was 100 % of control.
COc1ccc2sc(C)cc(=O)c2c1 was tested, and the T/C (dose: 50.0 mg/kg/injection, schedule: Q01DX009 (ip), vehicle: saline + Tween-80 + alcohol) was 106 % of control, the T/C (dose: 100.0 mg/kg/injection, schedule: Q01DX009 (ip), vehicle: saline + Tween-80 + alcohol) was 109 % of control and the T/C (dose: 200.0 mg/kg/injection, schedule: Q01DX009 (ip), vehicle: saline + Tween-80 + alcohol) was 109 % of control.
In the case of NC1CC2c3ccccc3C1c1ccccc12 (stereo not drawn), the T/C [8] is reported as 100 % of control, the T/C [9] is reported as 100 % of control and the T/C [1] is reported as 100 % of control.
Cc1ccc2nc(N/N=C/c3cccnc3)sc2c1 was tested, and the T/C [5] was 105 % of control, the T/C [6] was 100 % of control and the T/C [7] was 96 % of control.
With COC(=O)Nc1c2ccccc2nc2c1c(C)c(C)c1ccccc12 the T/C (dose: 100.0 mg/kg/injection, schedule: Q01DX001 (ip), vehicle: saline with Tween-80) was 88 % of control, the T/C (dose: 200.0 mg/kg/injection, schedule: Q01DX001 (ip), vehicle: saline with Tween-80) was 88 % of control and the T/C (dose: 400.0 mg/kg/injection, schedule: Q01DX001 (ip), vehicle: saline with Tween-80) was 95 % of control.
For COc1cc2ccnc(Cc3ccc4c(c3)OCO4)c2cc1OC, the T/C (dose: 50.0 mg/kg/injection, schedule: Q01DX009 (ip), vehicle: saline) was 115 % of control, the T/C (dose: 100.0 mg/kg/injection, schedule: Q01DX009 (ip), vehicle: saline) was 95 % of control and the T/C (dose: 100.0 mg/kg/injection, schedule: Q04DX003 (ip), vehicle: saline) was 100 % of control. The T/C (dose: 200.0 mg/kg/injection, schedule: Q01DX009 (ip), vehicle: saline) was 100 % of control, the T/C (dose: 200.0 mg/kg/injection, schedule: Q04DX003 (ip), vehicle: saline) was 100 % of control and the T/C (dose: 400.0 mg/kg/injection, schedule: Q04DX003 (ip), vehicle: saline) was 95 % of control.
With CC(=O)OCC1OC(NC(=S)NCC(=O)c2ccccc2)C(OC(C)=O)C(OC(C)=O)C1OC(C)=O (stereo not drawn) the T/C [1] was 99 % of control, the T/C [2] was 99 % of control and the T/C [3] was 98 % of control.
O=C(/C=N/O)Nc1ccccc1 was tested, and the T/C (dose: 12.5 mg/kg/injection, schedule: Q01DX009 (ip), vehicle: Klucel (hydroxypropylcellulose) (HPC)) was 100 % of control and 107 % of control, the T/C (dose: 25.0 mg/kg/injection, schedule: Q01DX009 (ip), vehicle: Klucel (hydroxypropylcellulose) (HPC)) was 99 % of control and 100 % of control and 106 % of control and the T/C [5] was 103 % of control and 92 % of control. The T/C [6] was 101 % of control and 109 % of control and 114 % of control.
